Source: patent US7514432B2, “Compounds and methods of treating cell proliferative diseases, retinopathies and arthritis” (Exonhit Therapeutics SA, priority 2003, dated 2009)

Tests used:
[1] = Screening in vivo rising and repeated-dose toxicity study in rats; conditions: for body weight: at 300 mg/kg/day p.o.; for biological changes (hematology and blood biochemistry) / clinical signs / death during the study / tolerability: p.o. 10, 50, 300 mg/kg per day, 3 days each
Experimental: Screening in vivo rising and repeated-dose toxicity study in rats was performed on 3 rats per compound with the following schedule: • a. day 1 to day 3: 10 mg/kg p.o. per day, • b. day 4 to day 6: 50 mg/kg p.o. per day, • c. day 7 to day 9: 300 mg/kg p.o. per day.
Clinical signs, bodyweight, food consumption, and blood parameters were followed.

HMEC1 [2] = test: Boyden chamber migration assay, HMEC1; type: cell-based; conditions: Homo sapiens, read-out: IC50, migration in Boyden chamber, HMEC1
Experimental: FIG. 4: Migration assays. (A) Wound healing assay in REF cells. 7.6 10^4 cells were plated on coverslips 48 hours before the experiment. The cells were pre-treated for 30 min. with the compounds, and then a scrape was done using a pipette tip. The scraped coverslips in treatment medium were put under a thermostated microscope coupled to a video camera. Movies were analyzed as described in material and methods, and velocity and total distance covered by the cells were evaluated. Bar graphs represent the mean±SEM of 2 to 4 experiments. (B) Boyden chamber migration assay in HMEC1, NIH3T3 and MDA-MB-231 cells. 5 10^4 to 7.5 10^4 Cells, resuspended in culture medium with or without FBS and with different compound concentrations, were seeded in the upper Boyden blind well on top of 8 μm pore-sized filters. The ability of the cells to migrate through the filter was assayed in the absence or presence of FBS in the lower Boyden chamber. After 16 hours incubation, the medium was removed and replaced with calcein-AM containing medium. After labeling, cells were washed with HBSS and fluorescence was read in a fluorescence plate reader. Fluorescence values were normalized against the fluorescence obtained for the 1% DMSO control. The data plotted are the means±SEM of 2 to 4 independent experiments.
An essential characteristic of malignant cells is their ability to migrate, invade host tissues and to produce metastases. In order to evaluate the capacity of one compound to affect the ability of tumoral cells to migrate, migration assays were performed using highly invasive tumoral cells MDA-MB-231, endothelial cells HMEC1 or fibroblastic cells NIH3T3. This assay was performed using Falcon HTS Fluoroblock inserts. […] Fluorescence data were collected using Fluoroskan Ascent FL fluorescence plate reader at an excitation wavelength (Ex) of 485 nm and emission wavelength (Em) of 517 nm. Only those labelled cells that passed through the Matrigel layer and the membrane were detected. […]

[3] = test system: Salmonella typhimurium TA 98 and TA 100 strains; test: Screening Ames test; conditions: with and without S9 mix; 10 to 5000 μg per plate
Source text: The objective of this study was to evaluate the potential of the test items to induce reverse mutation in Salmonella Typhimurium (TA 98 and TA 100 strains). The bacterial reverse mutation test is able to identify substances that cause point mutations, by substitution, addition or deletion of one or a few DNA base-pairs. Mutagenic substances can induce reversion in histidine deficient strains which are then able to grow and form colonies in a histidine-limited medium, while non-reverted cannot. This test is performed in the absence and presence of a rat liver metabolising system (S9 mix). Three known mutagens are used to check sensitivity of test system: sodium azide, 2-nitrofluorene and 2-anthramine.
The dose levels per plate were of 10 to 5000 μg. A preliminary toxicity test was performed followed by the mutagenecity test per se.

HMEC1 [4] = test: Cell viability assay (MTT), HMEC1; type: cell-based, Human; conditions: MTT, 10% FBS, 6-day treatment, 1% DMSO
Outline: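 HMEC1 cells seeded 24 h before dosing, then exposed to 0–200 μM compound (11 concentrations) in medium with 10% FBS and 1% DMSO final, refed every 3 days. Viability read on day 6 by MTT (0.5 mg/ml, 1–5 h at 37 °C), absorbance 550 nm; IC50 from dose-response curves, mean±SEM of 1–8 experiments.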

[5] = HMEC-1, FBS as chemoattractant, 16 hours

Row | SMILES | body weight [1] | biological changes (hematology and blood biochemistry) [1] | clinical signs [1] | death during the study [1] | tolerability [1] | IC50 (HMEC1 [2]; HMEC-1, 16 h) | mutagenic activity [3] | IC50 (HMEC1 [4]; Homo sapiens, HMEC-1, 144 h) | IC50 (HMEC1 [2]; [5]) | IC50 (HMEC1 [4]; trihydrochloride)
1 | Cl.Cl.O=c1cc(CN2CCOCC2)occ1OCCCCCSc1ccnc2cc(C(F)(F)F)ccc12 [EHT 1864, 5-(5-(7-(Trifluoromethyl)quinolin-4-ylthio)pentyloxy)-2-(morpholinomethyl)-4H-pyran-4-one dihydrochloride] | mean body weight loss | Some limited biological changes | Minimal clinical signs | No death occurred | quite well tolerated up to 300 mg/kg/day | 7.8 ± 1.7 µM | did not show any mutagenic activity | 27.4 µM | – | –
2 | Cl.Cl.Cl.O=c1cc(CN2CCNCC2)occ1OCCCCCSc1ccnc2cc(C(F)(F)F)ccc12 [EHT 8560, 5-(5-(7-(Trifluoromethyl)quinolin-4-ylthio)pentyloxy)-2-((piperazin-1-yl)methyl)-4H-pyran-4-one trihydrochloride] | mean body weight loss | Some limited biological changes | Minimal clinical signs | No death occurred | quite well tolerated up to 300 mg/kg/day | – | did not show any mutagenic activity | < 10 µM | 9.5 ± 0.3 µM | 6.1 µM
3 | CN1CCN(Cc2cc(=O)c(OCCCCCSc3ccnc4cc(C(F)(F)F)ccc34)co2)CC1.Cl.Cl.Cl [EHT 9241, 5-(5-(7-(Trifluoromethyl)quinolin-4-ylthio)pentyloxy)-2-((4-methylpiperazin-1-yl)methyl)-4H-pyran-4-one trihydrochloride] | mean body weight loss | Some limited biological changes | Minimal clinical signs | No death occurred | quite well tolerated up to 300 mg/kg/day | – | did not show any mutagenic activity | < 10 µM | 9.1 ± 1.4 µM | 8.2 µM
